By EC50 is commonly meant the concentration needed to bring the measured effect to its halfway point.

Where only a bound is given, the exact number is not on record here.

41 compounds from patent US10138233B2, “Imidazole compounds as modulators of FSHR and uses thereof” (Merck Patent GmbH, priority 2013, dated 2018) can be followed below.

The target in this test is T1, FSHR (Homo sapiens, UniProt P23945).
T1 construct: expressed in transfected cells; host or cells: CHO cells, clone Cho-FSHR-LUC-1-1-43
T1 sequence (P23945 18-695): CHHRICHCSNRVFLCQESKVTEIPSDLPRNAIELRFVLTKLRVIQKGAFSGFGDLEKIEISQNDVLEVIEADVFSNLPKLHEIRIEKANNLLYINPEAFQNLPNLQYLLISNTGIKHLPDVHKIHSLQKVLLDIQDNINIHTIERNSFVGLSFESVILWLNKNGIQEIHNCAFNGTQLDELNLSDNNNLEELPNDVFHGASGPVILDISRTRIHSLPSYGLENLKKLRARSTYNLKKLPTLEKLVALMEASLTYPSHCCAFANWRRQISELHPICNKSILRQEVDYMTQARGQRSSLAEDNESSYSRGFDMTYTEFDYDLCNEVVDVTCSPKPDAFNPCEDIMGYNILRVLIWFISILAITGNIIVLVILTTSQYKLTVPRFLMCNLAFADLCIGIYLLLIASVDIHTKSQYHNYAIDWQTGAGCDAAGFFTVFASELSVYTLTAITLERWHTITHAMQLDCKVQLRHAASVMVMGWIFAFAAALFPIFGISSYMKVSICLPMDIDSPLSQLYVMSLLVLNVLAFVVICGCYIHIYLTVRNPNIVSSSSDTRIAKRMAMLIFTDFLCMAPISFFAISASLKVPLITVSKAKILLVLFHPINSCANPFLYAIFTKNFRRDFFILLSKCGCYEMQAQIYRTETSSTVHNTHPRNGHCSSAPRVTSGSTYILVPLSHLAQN
Description: EC50 of cyclic AMP production in CHO FSHR cells + EC20 FSH (Assay A). It is filed as cell-based. The note with it: CHO-FSHR-LUC cells, in presence of EC20 FSH, cAMP HTRF, 1 h 37° C. The method, then:
EC50 of cyclic AMP production in CHO FSHR cells+EC20 FSH (Assay A)
2500 Cho-FSHR-LUC-1-1-43 cells were plated per well in 5 μl of phenol red free DMEM/F12+1% FBS. […] Cells were assayed by adding 100 μl of 2×EC20 FSH/IBMX in DMEM/F12+0.1% BSA) by Multidrop to 2 μl of test compound stamped in 384 well plates (compounds are diluted 1:50). […] The compound plate map was as follows: Column 1: 2 μl of DMSO; Column 2: 2 μl of DMSO; Columns 3-12 and 13-24: 2 μl of test compound, diluted 1:4 in 100% DMSO, or 2 μl of FSH, diluted 1:4 in DMEM/F12+0.1% BSA. The starting concentration for FSH was 50 nM (final concentration was 0.5 nM). […] 10 μl of mixed HTRF (CisBio #62AM4PEC) reagents were added per well and incubated at room temperature for 1 h. The plates were read on Envision using the cAMP HTRF—low volume 384 well protocol. […] Values given in percent (%) indicate the percental effect (response) at a certain concentration of agonist relative to the maximum response of the FSH standard.
For `COc1cc2c(cc1OC(C)C)-n1c(-c3sccc3C)nc(C(=O)N3CCOCC3(C)C)c1CC2` [Compound 60], the EC50 was 100 to 1000 nM. As for `COc1cc2c(cc1OC(C)C)-n1c(-c3ccsc3)nc(C(=O)N3CCCN(C(=O)N4CCC4)CC3)c1CC2` [Compound 10], the figure is 100 to 1000 nM; as for `COc1cc2c(cc1CC(C)C)-n1c(-c3cccs3)nc(C(=O)NC(C)(C)CO)c1CC2` [Compound 24, 8-Isobutyl-7-methoxy-1-thiophen-2-yl-4,5-dihydro-imidazo[1,5-a]quinoline-3-carboxylic acid (2-hydroxy-1,1-dimethyl-ethyl)-amide], 1000 to 5000 nM; as for `COc1cc2c(cc1OC(C)C)-n1c(-c3cccc4c3OCO4)nc(C(=O)N3CCOCC3(C)C)c1CC2` [Compound 141], 100 to 1000 nM. With `COc1cc2c(cc1OC(C)C)-n1c(C3=CCOCC3)nc(C(=O)N3CCOCC3(C)C)c1CC2` [Compound 79], the EC50 fell in the range of 100 to 1000 nM. On to `COc1cc2c(cc1OC(C)C)-n1c(-c3ccc(C#N)c(C(F)(F)F)c3)nc(C(=O)N3CCOCC3(C)C)c1CC2` [Compound 124], for which the EC50 was 1000 to 5000 nM. On to `COc1cc2c(cc1OC(C)C)-n1c(-c3ccsc3C)nc(C(=O)N3CCOCC3(C)C)c1CC2` [Compound 106], for which the EC50 was in the range of 100 to 1000 nM. Regarding `COc1cc2c(cc1CC(C)C)-n1c(-c3cccs3)nc(C(=O)N(C)C(C)(C)C)c1CC2` [Compound 17, 8-Isobutyl-7-methoxy-1-thiophen-2-yl-4,5-dihydro-imidazo[1,5-a]quinoline-3-carboxylic acid tert-butyl-methyl-amide], the EC50 was less than 100 nM.

For `COc1cc2c(cc1CC(C)C)-n1c(-c3cccs3)nc(C(=O)N3CCCC34COC4)c1CC2` [Compound 57, (8-Isobutyl-7-methoxy-1-thiophen-2-yl-4,5-dihydro-imidazo[1,5-a]quinolin-3-yl)-(2-oxa-5-aza-spiro[3.4]oct-5-yl)-methanone], the EC50 fell in the range of 1000 to 5000 nM. `COc1cc2c(cc1OC(C)C)-n1c(-c3ccnn3C)nc(C(=O)N3CCOCC3(C)C)c1CC2` [Compound 40]: the EC50 lay within 1000 to 5000 nM. As for `COc1cc2c(cc1OC(C)C)-n1c(-c3cccc(Cl)c3Cl)nc(C(=O)N3CCOCC3(C)C)c1CC2` [Compound 142], the concentration giving a half-maximal response (EC50) was in the range of 100 to 1000 nM. With `COc1ccc(-c2nc(C(=O)N3CCOCC3(C)C)c3n2-c2cc(OC(C)C)c(OC)cc2CC3)cc1C` [Compound 125] the figure was 1000 to 5000 nM; with `COc1cc2c(cc1OC(C)C)-n1c(Br)nc(C(=O)N3CCCN(C(=O)C4CCC4)CC3)c1CC2` [Compound 3], less than 100 nM; with `COc1cc2c(cc1OC(C)C)-n1c(C3=CCCC3(C)C)nc(C(=O)N3CCOCC3(C)C)c1CC2` [Compound 100], less than 100 nM. For `COc1cc2c(cc1OC(C)C)-n1c(-c3cn(C)nn3)nc(C(=O)N3CCOCC3(C)C)c1CC2` [Compound 52], the EC50 is more than 5000 nM. With `COc1cccc(-c2nc(C(=O)N3CCOCC3(C)C)c3n2-c2cc(OC(C)C)c(OC)cc2CC3)c1` [Compound 115] the figure was 100 to 1000 nM.

Regarding `COc1cc2c(cc1-c1cccnc1)-n1c(-c3ccsc3)nc(C(=O)N(C)C(C)(C)C)c1CC2` [Compound 8, 7-Methoxy-8-pyridin-3-yl-1-thiophen-3-yl-4,5-dihydro-imidazo[1,5-a]quinoline-3-carboxylic acid tert-butyl-methyl-amide], the EC50 is less than 100 nM. Take `COc1cc2c(cc1OC(C)C)-n1c(-c3cn(C)cn3)nc(C(=O)N3CCOCC3(C)C)c1CC2` [Compound 46]: the EC50 was more than 5000 nM. With `COc1cc2c(cc1OC(C)C)-n1c(-c3ccccc3OC)nc(C(=O)N(C)C(C)(C)C)c1CC2` [Compound 62], the EC50 is 1000 to 5000 nM. As for `COc1cc2c(cc1OC(C)C)-n1c(-c3ccc(C)c(F)c3)nc(C(=O)N3CCOCC3(C)C)c1CC2` [Compound 126], the figure is 100 to 1000 nM; as for `COc1cc2c(cc1CC(C)C)-n1c(-c3cc[nH]c3)nc(C(=O)N3CCOCC3(C)C)c1CC2` [Compound 28, (3,3-Dimethyl-morpholin-4-yl)-[8-isobutyl-7-methoxy-1-(1H-pyrrol-3-yl)-4,5-dihydro-imidazo[1,5-a]quinolin-3-yl]-methanone], 100 to 1000 nM. As for `COc1cc2c(cc1OC(C)C)-n1c(-c3ccc(F)c(C#N)c3)nc(C(=O)N3CCOCC3(C)C)c1CC2` [Compound 107], the concentration giving a half-maximal response (EC50) is more than 5000 nM. In the case of `COc1cc2c(cc1OC(C)C)-n1c(-c3ccn(C)c3)nc(C(=O)N(C)C(C)(C)C)c1CC2` [Compound 15], the EC50 fell in the range of 100 to 1000 nM. Take `COc1cc2c(cc1OC(C)C)-n1c(-c3cnn(C4CCC4)c3)nc(C(=O)N3CCOCC3(C)C)c1CC2` [Compound 80]: the EC50 was more than 5000 nM. As for `COc1cc2c(cc1OC(C)C)-n1c(-c3cc(Cl)ccc3Cl)nc(C(=O)N(C)C(C)(C)C)c1CC2` [Compound 65], the figure is 100 to 1000 nM; as for `COc1cc2c(cc1CC(C)C)-n1c(-c3ccsc3)nc(C(=O)N(C)C(C)(C)C)c1CC2` [Compound 18, 8-Isobutyl-7-methoxy-1-thiophen-3-yl-4,5-dihydro-imidazo[1,5-a]quinoline-3-carboxylic acid tert-butyl-methyl-amide], 100 to 1000 nM. With `COC(=O)c1nc(C(=O)N(C)C(C)(C)C)c2n1-c1cc(OC(C)C)c(OC)cc1CC2` [Compound 74, 3-(tert-Butyl-methyl-carbamoyl)-8-isopropoxy-7-methoxy-4,5-dihydro-imidazo[1,5-a]quinoline-1-carboxylic acid methyl ester] the figure was 1000 to 5000 nM.

`COc1cc2c(cc1OC(C)C)-n1c(-c3ccnn3CC(C)C)nc(C(=O)N3CCOCC3(C)C)c1CC2` [Compound 87]: the concentration for a half-maximal effect (EC50) lay in the range of 1000 to 5000 nM. With `COc1cc2c(cc1OC(C)C)-n1c(-c3cc(C)sc3C)nc(C(=O)N3CCOCC3(C)C)c1CC2` [Compound 129] the figure was 100 to 1000 nM; with `COc1cc2c(cc1OC(C)C)-n1c(-c3cccnc3)nc(C(=O)N3CCOCC3(C)C)c1CC2` [Compound 39], 1000 to 5000 nM; with `COc1cc2c(cc1OC(C)C)-n1c(-c3ccc(F)c(Cl)c3F)nc(C(=O)N3CCOCC3(C)C)c1CC2` [Compound 123], 1000 to 5000 nM. Regarding `CCCn1nccc1-c1nc(C(=O)N2CCOCC2(C)C)c2n1-c1cc(OC(C)C)c(OC)cc1CC2` [Compound 88], the EC50 is 100 to 1000 nM. As for `COc1cc2c(cc1OC)-n1c(-c3ccsc3)nc(C(=O)N(C)C(C)(C)C)c1CC2` [Compound 2, 7,8-Dimethoxy-1-thiophen-3-yl-4,5-dihydro-imidazo[1,5-a]quinoline-3-carboxylic acid tert-butyl-methyl-amide], the figure is 100 to 1000 nM; as for `COc1cc2c(cc1OC(C)C)-n1c(-c3cc(Cl)ccc3F)nc(C(=O)N3CCOCC3(C)C)c1CC2` [Compound 101], 100 to 1000 nM. As for `COc1cc2c(cc1OC(C)C)-n1c(-c3ccc(F)c(Cl)c3)nc(C(=O)N3CCOCC3(C)C)c1CC2` [Compound 116], the figure is 100 to 1000 nM; as for `COc1cc2c(cc1OC(C)C)-n1c(-c3ccsc3)nc(C(=O)N(C)C(C)(C)C)c1CC2` [Compound 5], 100 to 1000 nM. Take `COc1cc2c(cc1OC(C)C)-n1c(-c3cc(F)c(F)c(Cl)c3)nc(C(=O)N3CCOCC3(C)C)c1CC2` [Compound 122]: the EC50 was 100 to 1000 nM. With `COc1cc2c(cc1OC(C)C)-n1c(-c3cn(C)nc3C)nc(C(=O)N3CCOCC3(C)C)c1CC2` [Compound 36] the figure was more than 5000 nM; with `COc1cc2c(cc1OC(C)C)-n1c(-c3ccc(F)c(C(F)(F)F)c3)nc(C(=O)N3CCOCC3(C)C)c1CC2` [Compound 111], 1000 to 5000 nM; with `COc1cc2c(cc1CC(C)C)-n1c(-c3cn[nH]c3)nc(C(=O)N(C)C(C)(C)C)c1CC2` [Compound 23, 8-Isobutyl-7-methoxy-1-(1H-pyrazol-4-yl)-4,5-dihydro-imidazo[1,5-a]quinoline-3-carboxylic acid tert-butyl-methyl-amide], 1000 to 5000 nM. With `[2H]C([2H])([2H])N(C(=O)c1nc(-c2cccs2)n2c1CCc1cc(OC)c(-c3ccn(C)n3)cc1-2)C1(C)COC1` [Compound 130, 7-Methoxy-8-(1-methyl-1H-pyrazol-3-yl)-1-thiophen-2-yl-4,5-dihydro-imidazo[1,5-a]quinoline-3-carboxylic acid methyl-d3-(3-methyl-oxetan-3-yl)-amide] the figure was 100 to 1000 nM.
